According to ChEMBL document CHEMBL1201862, “PubChem BioAssay data set” (2004):
Activity calls are given as the source filed them.

Experiments:
[1] = target: T1, Short transient receptor potential channel 4 (Mus musculus, UniProt Q9QUQ5); assay: TRPC4 positive allosteric modulators, dose response, cell-based, HEK293 TRPC4/mu-opioid, Fluo-4 calcium, EC20 DAMGO (AID 434941); type: functional
T1 sequence (Q9QUQ5 whole entry): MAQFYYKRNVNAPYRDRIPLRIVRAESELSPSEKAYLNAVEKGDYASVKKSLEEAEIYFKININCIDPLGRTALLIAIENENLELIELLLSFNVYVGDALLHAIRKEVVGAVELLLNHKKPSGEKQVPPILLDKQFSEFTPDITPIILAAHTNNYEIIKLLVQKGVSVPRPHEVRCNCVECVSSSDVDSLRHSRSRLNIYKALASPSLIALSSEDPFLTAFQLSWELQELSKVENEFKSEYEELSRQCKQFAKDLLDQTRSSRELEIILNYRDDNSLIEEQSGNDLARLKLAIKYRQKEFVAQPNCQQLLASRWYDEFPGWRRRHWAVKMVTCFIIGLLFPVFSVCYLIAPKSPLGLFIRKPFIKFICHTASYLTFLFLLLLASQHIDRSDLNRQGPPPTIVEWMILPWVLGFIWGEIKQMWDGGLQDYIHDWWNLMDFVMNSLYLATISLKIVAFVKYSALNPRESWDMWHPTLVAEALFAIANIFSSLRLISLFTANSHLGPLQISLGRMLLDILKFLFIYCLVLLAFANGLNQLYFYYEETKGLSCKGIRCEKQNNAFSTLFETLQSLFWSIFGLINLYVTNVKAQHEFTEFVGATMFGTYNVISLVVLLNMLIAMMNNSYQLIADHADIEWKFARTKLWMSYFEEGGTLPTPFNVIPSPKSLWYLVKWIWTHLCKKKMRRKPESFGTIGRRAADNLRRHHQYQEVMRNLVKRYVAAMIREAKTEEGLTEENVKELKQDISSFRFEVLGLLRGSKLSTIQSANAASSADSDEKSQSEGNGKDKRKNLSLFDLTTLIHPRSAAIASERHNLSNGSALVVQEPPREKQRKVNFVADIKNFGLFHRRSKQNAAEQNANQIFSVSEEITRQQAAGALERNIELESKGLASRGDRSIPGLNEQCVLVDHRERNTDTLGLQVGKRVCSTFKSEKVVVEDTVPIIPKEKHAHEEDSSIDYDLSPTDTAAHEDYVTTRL

[2] = target: T2, Eukaryotic translation initiation factor 2-alpha kinase 3 (Homo sapiens, UniProt Q9NZJ5); assay: Counterscreen assay for PERK inhibitors: Dose response cell-based high throughput screening assay to measure inhibition of PERK at 6 hours. [Related pubchem assays: 1522, 1416 ]; type: functional
T2 sequence (Q9NZJ5 whole entry): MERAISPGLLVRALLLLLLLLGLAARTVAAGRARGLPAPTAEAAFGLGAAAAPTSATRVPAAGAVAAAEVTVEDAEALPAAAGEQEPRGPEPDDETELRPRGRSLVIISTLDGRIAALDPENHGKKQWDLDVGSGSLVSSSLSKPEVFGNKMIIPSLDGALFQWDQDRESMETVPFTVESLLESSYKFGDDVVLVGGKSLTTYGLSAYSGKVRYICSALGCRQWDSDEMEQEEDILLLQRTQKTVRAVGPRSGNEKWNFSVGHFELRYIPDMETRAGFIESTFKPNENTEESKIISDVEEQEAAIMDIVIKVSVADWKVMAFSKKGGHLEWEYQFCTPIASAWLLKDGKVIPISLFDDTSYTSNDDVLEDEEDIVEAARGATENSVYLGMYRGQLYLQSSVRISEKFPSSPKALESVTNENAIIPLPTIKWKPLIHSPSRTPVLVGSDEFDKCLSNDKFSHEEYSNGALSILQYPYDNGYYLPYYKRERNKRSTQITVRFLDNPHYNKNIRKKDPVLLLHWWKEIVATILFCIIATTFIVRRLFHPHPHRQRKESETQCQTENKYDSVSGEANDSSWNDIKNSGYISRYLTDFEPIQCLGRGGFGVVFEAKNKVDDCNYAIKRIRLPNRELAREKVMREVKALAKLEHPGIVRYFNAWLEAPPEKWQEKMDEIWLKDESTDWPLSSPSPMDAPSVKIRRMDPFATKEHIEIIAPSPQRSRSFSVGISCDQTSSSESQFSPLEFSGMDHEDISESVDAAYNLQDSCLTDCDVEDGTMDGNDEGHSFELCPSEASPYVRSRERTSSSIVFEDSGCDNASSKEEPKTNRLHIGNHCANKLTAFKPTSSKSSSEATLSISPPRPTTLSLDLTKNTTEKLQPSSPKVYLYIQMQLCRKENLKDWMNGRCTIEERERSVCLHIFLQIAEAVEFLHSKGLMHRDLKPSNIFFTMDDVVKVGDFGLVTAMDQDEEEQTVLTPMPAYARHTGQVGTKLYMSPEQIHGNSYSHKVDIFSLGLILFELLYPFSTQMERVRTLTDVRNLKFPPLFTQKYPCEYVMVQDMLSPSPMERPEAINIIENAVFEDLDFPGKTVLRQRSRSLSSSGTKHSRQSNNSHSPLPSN

[3] = HepG2 cell cytotoxicity, dose response, cytotoxicity control for non-replicating M. tuberculosis project (AID 489018); type: functional; conditions: Mycobacterium tuberculosis
[4] = target: T2, Eukaryotic translation initiation factor 2-alpha kinase 3; assay: Dose response cell-based high-throughput screening assay to measure PERK inhibition. [Related pubchem assays: 1416 ]; type: functional
[5] = THP-1 cell cytotoxicity, dose response, cytotoxicity control for non-replicating M. tuberculosis project (AID 489025); type: functional
[6] = Vero E6 cell cytotoxicity, dose response, cytotoxicity control for non-replicating M. tuberculosis project, secondary assay (AID 492998); type: functional, VeroE6; conditions: Vero C1008
[7] = target: G-protein coupled receptor 55 (Homo sapiens, UniProt Q9Y2T6); assay: GPR55 agonists via beta-arrestin recruitment, primary screen, imaging, U2OS cells, beta-arrestin-GFP redistribution (AID 1961); type: functional
G-protein coupled receptor 55, sequence (Q9Y2T6 whole entry): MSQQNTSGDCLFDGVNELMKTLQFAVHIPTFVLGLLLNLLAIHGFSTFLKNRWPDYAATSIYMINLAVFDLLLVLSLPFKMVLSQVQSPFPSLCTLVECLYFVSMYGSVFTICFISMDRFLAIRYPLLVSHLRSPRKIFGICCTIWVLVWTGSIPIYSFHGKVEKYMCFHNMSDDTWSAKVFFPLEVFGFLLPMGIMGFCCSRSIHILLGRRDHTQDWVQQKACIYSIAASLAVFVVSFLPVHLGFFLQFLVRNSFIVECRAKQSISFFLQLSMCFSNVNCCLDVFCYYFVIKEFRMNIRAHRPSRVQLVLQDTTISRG

[8] = target: Eukaryotic translation initiation factor 4H (Homo sapiens, UniProt Q15056); assay: human eIF4H binding inhibitors, primary screen, translation initiation inhibitor project, biochemical, uHTS, fluorescence polarization (AID 2012)
[9] = target: Polyadenylate-binding protein 1 (Homo sapiens, UniProt P11940); assay: PABP poly(A) RNA binding inhibitors, primary screen, biochemical, fluorescence polarization, uHTS (AID 2014)
Polyadenylate-binding protein 1, sequence (P11940 whole entry): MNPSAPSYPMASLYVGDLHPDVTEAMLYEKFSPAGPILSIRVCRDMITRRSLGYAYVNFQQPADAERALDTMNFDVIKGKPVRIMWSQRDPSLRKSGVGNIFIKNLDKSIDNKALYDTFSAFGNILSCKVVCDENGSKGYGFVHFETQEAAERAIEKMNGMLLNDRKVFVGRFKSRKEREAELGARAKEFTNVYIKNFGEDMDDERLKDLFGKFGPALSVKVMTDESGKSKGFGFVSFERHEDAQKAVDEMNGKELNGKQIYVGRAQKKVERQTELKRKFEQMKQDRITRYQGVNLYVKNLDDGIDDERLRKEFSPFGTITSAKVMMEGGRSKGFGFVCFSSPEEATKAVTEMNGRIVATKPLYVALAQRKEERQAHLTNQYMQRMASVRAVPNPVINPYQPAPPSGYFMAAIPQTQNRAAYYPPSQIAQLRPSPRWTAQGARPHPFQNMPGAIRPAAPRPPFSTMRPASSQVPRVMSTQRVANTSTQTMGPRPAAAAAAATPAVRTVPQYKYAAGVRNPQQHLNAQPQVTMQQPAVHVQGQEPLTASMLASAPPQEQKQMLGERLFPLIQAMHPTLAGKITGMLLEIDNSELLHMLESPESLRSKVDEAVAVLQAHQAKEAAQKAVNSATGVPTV

[10] = cytotoxicity in HPDE-C7 cells, cell-based, fluorescence, HTS (AID 430); type: functional; conditions: Homo sapiens
[11] = cytotoxicity in KRAS-transformed pancreatic duct cells, primary screen, cell-based, fluorescence, HTS (AID 431); type: functional; conditions: Homo sapiens;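 further: cell line used: HPDE-C7K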
[12] = ADAM10 protease inhibitors, dose response, selectivity assay for ADAM17 exosite inhibitor project, biochemical, FRET peptide substrate, recombinant human ADAM10 (AID 743259);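 further: ADAM10 enzyme cleaving a FRET peptide substrate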
[13] = target: Disintegrin and metalloproteinase domain-containing protein 17 (Homo sapiens, UniProt P78536); assay: exosite inhibitors of ADAM17, dose response, biochemical (AID 743260)
Disintegrin and metalloproteinase domain-containing protein 17, sequence (P78536 whole entry, the tested form may be a part): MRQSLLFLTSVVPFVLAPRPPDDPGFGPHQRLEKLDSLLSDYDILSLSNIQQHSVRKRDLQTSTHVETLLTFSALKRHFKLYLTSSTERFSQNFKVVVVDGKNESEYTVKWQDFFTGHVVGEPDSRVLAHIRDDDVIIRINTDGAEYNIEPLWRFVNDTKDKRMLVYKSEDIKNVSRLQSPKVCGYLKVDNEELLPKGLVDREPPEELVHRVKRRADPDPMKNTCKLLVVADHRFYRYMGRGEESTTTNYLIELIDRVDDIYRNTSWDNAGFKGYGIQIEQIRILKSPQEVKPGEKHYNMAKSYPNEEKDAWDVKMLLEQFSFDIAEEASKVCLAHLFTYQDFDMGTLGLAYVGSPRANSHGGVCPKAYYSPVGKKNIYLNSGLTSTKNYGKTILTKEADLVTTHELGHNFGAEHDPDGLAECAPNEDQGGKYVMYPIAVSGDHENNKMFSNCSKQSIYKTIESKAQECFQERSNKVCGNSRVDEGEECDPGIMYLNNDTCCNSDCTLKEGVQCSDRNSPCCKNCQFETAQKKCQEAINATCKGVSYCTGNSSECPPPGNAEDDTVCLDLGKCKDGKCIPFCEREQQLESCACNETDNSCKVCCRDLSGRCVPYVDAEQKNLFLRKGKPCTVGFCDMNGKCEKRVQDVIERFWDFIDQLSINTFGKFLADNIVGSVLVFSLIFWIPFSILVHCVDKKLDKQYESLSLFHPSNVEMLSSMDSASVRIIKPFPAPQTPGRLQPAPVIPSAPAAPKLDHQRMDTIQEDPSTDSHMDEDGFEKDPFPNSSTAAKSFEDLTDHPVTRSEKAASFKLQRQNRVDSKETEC

[14] = target: G-protein coupled receptor 35 (Homo sapiens, UniProt Q9HC97); assay: GPR35 antagonists blocking zaprinast-driven arrestin recruitment, primary screen, imaging, U2OS, beta-arrestin-GFP, zaprinast agonist (AID 2058); type: functional;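 further: antagonist potency meaning inhibition of agonist-induced arrestin redistribution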
G-protein coupled receptor 35, sequence (Q9HC97 whole entry): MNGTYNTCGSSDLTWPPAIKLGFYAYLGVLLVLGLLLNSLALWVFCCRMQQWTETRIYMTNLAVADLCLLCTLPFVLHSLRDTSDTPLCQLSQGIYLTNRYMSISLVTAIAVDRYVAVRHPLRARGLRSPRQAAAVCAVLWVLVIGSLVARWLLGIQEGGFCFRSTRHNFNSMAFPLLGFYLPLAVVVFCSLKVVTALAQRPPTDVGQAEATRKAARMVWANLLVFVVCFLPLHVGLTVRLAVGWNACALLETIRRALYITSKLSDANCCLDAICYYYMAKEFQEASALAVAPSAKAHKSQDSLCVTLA

[15] = target: T3, Dual specificity protein phosphatase 6 (Rattus norvegicus, UniProt Q64346); type: functional
T3 sequence (Q64346 whole entry): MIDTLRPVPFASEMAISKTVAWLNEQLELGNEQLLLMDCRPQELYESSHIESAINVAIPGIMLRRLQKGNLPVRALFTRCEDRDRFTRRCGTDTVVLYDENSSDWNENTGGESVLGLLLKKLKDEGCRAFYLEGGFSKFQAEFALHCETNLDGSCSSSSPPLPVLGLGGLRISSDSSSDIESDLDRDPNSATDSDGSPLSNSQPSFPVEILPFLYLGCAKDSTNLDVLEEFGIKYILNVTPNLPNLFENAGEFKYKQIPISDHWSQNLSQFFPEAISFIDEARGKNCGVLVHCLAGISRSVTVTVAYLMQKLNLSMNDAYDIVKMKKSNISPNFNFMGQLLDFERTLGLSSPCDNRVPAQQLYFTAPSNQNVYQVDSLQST

[16] = target: Glyceraldehyde-3-phosphate dehydrogenase (Homo sapiens, UniProt P04406)
Glyceraldehyde-3-phosphate dehydrogenase, sequence (P04406 whole entry): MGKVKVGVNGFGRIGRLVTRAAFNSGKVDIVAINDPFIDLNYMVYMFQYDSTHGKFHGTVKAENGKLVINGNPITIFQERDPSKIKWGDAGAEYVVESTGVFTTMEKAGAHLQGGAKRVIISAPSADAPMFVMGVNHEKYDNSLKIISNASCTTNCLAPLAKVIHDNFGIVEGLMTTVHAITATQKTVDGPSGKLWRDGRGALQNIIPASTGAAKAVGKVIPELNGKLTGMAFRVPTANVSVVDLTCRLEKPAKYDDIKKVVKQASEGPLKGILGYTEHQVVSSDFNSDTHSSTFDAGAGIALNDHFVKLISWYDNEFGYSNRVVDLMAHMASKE

[17] = target: T3, Dual specificity protein phosphatase 6
[18] = target: T4, Tyrosine-protein phosphatase non-receptor type 7 (Homo sapiens, UniProt P35236); type: functional
T4 sequence (P35236 whole entry): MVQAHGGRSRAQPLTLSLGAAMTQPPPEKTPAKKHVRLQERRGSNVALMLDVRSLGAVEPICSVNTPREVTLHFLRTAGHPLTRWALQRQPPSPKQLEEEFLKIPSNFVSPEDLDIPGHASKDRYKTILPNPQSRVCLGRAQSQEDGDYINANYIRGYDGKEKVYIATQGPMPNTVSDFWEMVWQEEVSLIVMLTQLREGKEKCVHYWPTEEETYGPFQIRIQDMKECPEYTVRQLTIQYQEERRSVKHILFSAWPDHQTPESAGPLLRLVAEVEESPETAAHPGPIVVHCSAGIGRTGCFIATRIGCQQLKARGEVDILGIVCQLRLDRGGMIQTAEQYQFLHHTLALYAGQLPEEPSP

[19] = cytotoxicity in HEK-293T cells, dose response, cytotoxicity control for BCR NF-kB inhibitor project, luminescence, B-cell screen hits (AID 489021); type: functional, cell-based;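 further: HEK-293T cells carrying an NF-kB luciferase reporter; cells exposed to compound for about 14 hours before viability readout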
[20] = target: DNA dC->dU-editing enzyme APOBEC-3A (Homo sapiens, UniProt P31941); assay: APOBEC3A DNA deaminase inhibitors, dose response, biochemical (AID 504722); type: functional
DNA dC->dU-editing enzyme APOBEC-3A, sequence (P31941 whole entry): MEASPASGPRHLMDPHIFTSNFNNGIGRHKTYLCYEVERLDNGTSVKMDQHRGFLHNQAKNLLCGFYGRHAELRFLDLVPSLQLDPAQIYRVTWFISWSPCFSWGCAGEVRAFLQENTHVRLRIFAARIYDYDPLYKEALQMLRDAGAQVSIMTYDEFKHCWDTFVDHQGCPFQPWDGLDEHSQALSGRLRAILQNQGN

[21] = target: DNA dC->dU-editing enzyme APOBEC-3G (Homo sapiens, UniProt Q9HC16); assay: Dose Response confirmation of small molecule APOBEC3G DNA Deaminase Inhibitors via a fluorescence-based single-stranded DNA deaminase assay. [Related pubchem assays (depositor defined):AID493012, AID493028]; type: functional
DNA dC->dU-editing enzyme APOBEC-3G, sequence (Q9HC16 whole entry): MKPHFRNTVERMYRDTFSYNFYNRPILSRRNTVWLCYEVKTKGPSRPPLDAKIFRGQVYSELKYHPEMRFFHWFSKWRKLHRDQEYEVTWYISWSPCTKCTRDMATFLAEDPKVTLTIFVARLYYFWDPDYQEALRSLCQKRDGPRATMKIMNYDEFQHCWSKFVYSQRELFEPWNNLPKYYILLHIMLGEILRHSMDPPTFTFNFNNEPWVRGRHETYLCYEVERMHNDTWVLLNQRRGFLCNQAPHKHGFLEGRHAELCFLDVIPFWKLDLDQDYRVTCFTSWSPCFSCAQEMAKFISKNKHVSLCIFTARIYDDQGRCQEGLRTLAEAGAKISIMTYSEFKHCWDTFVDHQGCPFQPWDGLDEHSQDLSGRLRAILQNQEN

[22] = target: T4, Tyrosine-protein phosphatase non-receptor type 7; assay: redox-dependent HePTP inhibition, mechanism study, biochemical, fluorescence (AID 2068); type: functional
[23] = target: T5, Rac GTPase-activating protein 1 (Homo sapiens, UniProt Q9H0H5); assay: MgcRacGAP GTPase-activating activity inhibitors, confirmation, biochemical, ADP Hunter fluorescence, primary and confirmatory (AID 624330); type: functional
T5 sequence (Q9H0H5 whole entry): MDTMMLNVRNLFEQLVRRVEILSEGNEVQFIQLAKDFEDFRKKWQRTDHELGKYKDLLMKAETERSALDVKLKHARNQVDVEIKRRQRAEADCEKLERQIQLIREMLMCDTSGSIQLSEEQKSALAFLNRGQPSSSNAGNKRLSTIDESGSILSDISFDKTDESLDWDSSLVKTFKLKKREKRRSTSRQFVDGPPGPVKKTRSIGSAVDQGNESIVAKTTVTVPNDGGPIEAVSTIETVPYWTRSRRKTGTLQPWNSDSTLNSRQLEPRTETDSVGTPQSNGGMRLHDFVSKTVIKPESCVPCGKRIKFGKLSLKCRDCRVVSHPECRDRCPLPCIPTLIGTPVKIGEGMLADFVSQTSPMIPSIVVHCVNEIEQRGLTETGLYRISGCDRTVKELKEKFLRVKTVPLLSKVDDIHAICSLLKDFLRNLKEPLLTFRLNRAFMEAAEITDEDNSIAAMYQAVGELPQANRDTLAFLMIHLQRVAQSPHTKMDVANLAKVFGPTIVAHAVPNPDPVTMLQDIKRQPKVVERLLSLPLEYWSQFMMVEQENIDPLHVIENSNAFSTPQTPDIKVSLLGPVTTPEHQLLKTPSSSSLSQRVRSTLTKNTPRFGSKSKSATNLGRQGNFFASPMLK

## O=C(CCN1CCN(Cc2ccccc2)CC1)Nc1ccc(OCc2ccccc2)cc1
[1]
  EC50: 0.13 µM (active)

## N#Cc1ccsc1NC(=O)c1ccc(Cl)c([N+](=O)[O-])c1
[2]
  EC50: > 55.7 µM (not active)
[3]
  CC50: > 20 µM (active)
[4]
  EC50: > 55.7 µM (not active)
[5]
  CC50: 20.9 µM (active)
[6]
  CC50: 13.9 µM (active)

## Cc1[nH]c2ccc(-c3nnc(SCC(=O)NCc4ccco4)n3Cc3ccccc3)cc2c1C
[7]
  EC50: 5.78 µM (active)

## CCCC[N+]12C3C[C@H](C4[C@H](O)[C@]5(C[C@@H]41)c1ccccc1N(C)[C@@H]35)[C@H](CC)[C@H]2O (some centres not stated)
[8]
  IC50: > 100 µM (inactive)
[9]
  IC50: 5.27 µM (active)

## CCCCCCn1c(N2CCN(c3ccccc3)CC2)nc2c1c(=O)n(C)c(=O)n2C
[10]
  EC50: > 20 µM (not active)
[1]
  EC50: 6.68 µM (active)
[11]
  EC50: > 20 µM (not active)

## Cc1nc(N2CCCCC2)c2c(C)c(C(=O)Nc3ccc4c(c3)OCCO4)sc2n1
[12]
  IC50: > 69.5 µM (inactive)
[13]
  IC50: > 69.5 µM (inactive)
[14]
  IC50: 2.07 µM (active)

## CCCCCCCCCCCCCCCCCCC=CCCCCCC(=O)O
[15]
  IC50: > 100 µM (inactive)
[16]
  IC50: > 100 µM (not active)
[17]
  IC50: > 100 µM (inactive)
[18]
  IC50: 0.801 µM (active)

## CCC(CC)C(=O)Nc1ccc(Sc2ccc([N+](=O)[O-])cc2)cc1
[19]
  IC50: > 80 µM (inactive)

## CC1Cc2ccccc2N1S(=O)(=O)c1cnc(Cl)c(Cl)c1 (configuration not stated)
[19]
  IC50: > 80 µM (inactive)

## CCn1c(S)nnc1CSc1nc2ccccc2s1
[20]
  IC50: > 100 µM (inactive)
[21]
  IC50: 3.73 µM (active)
[7]
  EC50: > 32 µM (inactive)

## COc1cc(C(=S)NCc2ccc(Cl)c(C)c2)ccc1O
[22]
  IC50: 3.06 µM (active)
[15]
  IC50: > 100 µM (inactive)

## CC1(C)CC2CC(C)(CN2C(=O)Nc2ccc3nc(-c4ccco4)c(-c4ccco4)nc3c2)C1 (configuration not stated)
[22]
  IC50: 2.92 µM (active)

## O=C(O)c1ccc(/C=N/n2cc(-c3ccccc3)nc2S)cc1
[20]
  IC50: > 100 µM (inactive)
[21]
  IC50: 3.33 µM (active)

## Cc1c(O)ccc2c3c(c(=O)oc12)CCCC3
[2]
  EC50: > 55.7 µM (not active)
[4]
  EC50: > 55.7 µM (not active)
[23]
  IC50: 22.5 µM (active)
